For the first experiment, the target named is T1, TGFβ R1 (Homo sapiens, UniProt P36897).
T1 sequence (P36897 34-503): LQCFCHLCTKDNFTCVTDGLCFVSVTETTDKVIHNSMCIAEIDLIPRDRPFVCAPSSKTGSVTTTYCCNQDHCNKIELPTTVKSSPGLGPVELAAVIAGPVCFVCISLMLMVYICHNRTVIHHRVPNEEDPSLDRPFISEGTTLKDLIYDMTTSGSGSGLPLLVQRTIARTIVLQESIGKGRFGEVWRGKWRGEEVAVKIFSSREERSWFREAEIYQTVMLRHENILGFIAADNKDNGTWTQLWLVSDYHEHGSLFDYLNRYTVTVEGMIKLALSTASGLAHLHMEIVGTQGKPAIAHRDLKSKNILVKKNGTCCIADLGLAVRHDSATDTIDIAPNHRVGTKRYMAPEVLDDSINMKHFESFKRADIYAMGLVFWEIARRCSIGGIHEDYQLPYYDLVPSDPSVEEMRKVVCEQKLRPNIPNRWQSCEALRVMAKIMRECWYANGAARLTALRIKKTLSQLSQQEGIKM
Put plainly: TGFβ R1 autophosphorylation protocol (33P-ATP, phosphocellulose filter plate). In kind it is biochemical. Particulars: 10 uM ATP, 170 nM TGFβ R1, 20 minutes at room temperature, read-out: IC50 for Kinase Inhibition. Put shortly: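 Incorporation of 33P from γ-33P-ATP (10 uM ATP final) into the kinase itself (170 nM) measured by phosphocellulose capture and scintillation counting. Incubation 20 min at room temperature in 20 mM MOPS pH 7 with […]; final DMSO ≤1%.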
Broadly, the IC50 is the concentration that gives 50% inhibition. As to `CC(C)c1cnc(-c2cc(Cl)ccc2F)nc1Nc1ccncc1C(=O)NC1(CO)CC1` [Compound 150, 4-[2-(5-Chloro-2-fluoro-phenyl)-5-isopropyl-pyrimidin-4-ylamino]-N-(1-hydroxymethyl-cyclopropyl)-nicotinamide], the IC50 was found to be 10 nM.

As to `COc1cnc(-c2cc(Cl)ccc2F)nc1Nc1ccncc1C(=O)NC1CCN(C(=O)CC2O[C@H](CO)[C@@H](O)[C@H](O)[C@H]2O)CC1` (stereo partly shown) [Compound 148, 4-[2-(5-Chloro-2-fluoro-phenyl)-5-methoxy-pyrimidin-4-ylamino]-N-{1-[2-(3,4,5-trihydroxy-6-hydroxymethyl-tetrahydro-pyran-2-yl)-acetyl]-piperidin-4-yl}-nicotinamide], the IC50 turned out to be 207 nM.

Take `COc1cnc(-c2cc(Cl)ccc2F)nc1Nc1ccncc1C(=O)NCCCN1CCOCC1` [Compound 9, 4-[2-(5-Chloro-2-fluoro-phenyl)-5-methoxy-pyrimidin-4-ylamino]-N-(3-morpholin-4-yl-propyl)-nicotinamide]: the IC50 was 30 nM.

In the case of `COc1cnc(-c2cc(Cl)ccc2F)nc1Nc1ccncc1C(=O)N[C@H]1CCNC1` [Compound 128, 4-[2-(5-Chloro-2-fluoro-phenyl)-5-methoxy-pyrimidin-4-ylamino]-N-pyrrolidin-3-yl-nicotinamide], the IC50 amounted to 8 nM.

For `COc1cnc(-c2cc(Cl)ccc2F)nc1Nc1ccncc1C(=O)NCCCN1CC[C@H](O)C1` [Compound 109, 4-[2-(5-Chloro-2-fluoro-phenyl)-5-methoxy-pyrimidin-4-ylamino]-N-[3-(3-hydroxy-pyrolidin-1-yl)-propyl]-nicotinamide], the IC50 was 330 nM.

For `NC(=O)c1cnccc1Nc1nc(-c2cc(Cl)ccc2F)ncc1I` [Compound 78, 4-[2-(5-Chloro-2-fluoro-phenyl)-5-iodo-pyrimidin-4-ylamino]-nicotinamide], the concentration for half-maximal inhibition (IC50) worked out at 10 nM.

In the case of `COc1cnc(-c2cc(Cl)ccc2F)nc1Nc1ccncc1C(=O)NCC(O)CN` (stereo not shown) [Compound 63, N-(3-Amino-2-hydroxy-propyl)-4-[2-(5-chloro-2-fluoro-phenyl)-5-methoxy-pyrimidin-4-ylamino]-nicotinamide], the 50% inhibitory concentration (IC50) was found to be 100 nM.

As to `CCOC(=O)CNC(=O)c1cnccc1Nc1nc(-c2cc(Cl)ccc2F)ncc1OC` [Compound 1, ({4-[2-(5-Chloro-2-fluoro-phenyl)-5-methoxy-pyrimidin-4-ylamino]pyridine-3-carbonyl}-amino)-acetic acid ethyl ester], the IC50 turned out to be 40 nM.

For `COc1cnc(-c2cc(Cl)ccc2F)nc1Nc1ccncc1C(=O)NCCCNC(=O)NC1CCCCC1` [Compound 64, 4-[2-(5-Chloro-2-fluoro-phenyl)-5-methoxy-pyrimidin-4-ylamino]-N-[3-(3-cyclohexyl-ureido)-propyl]-nicotinamide], the IC50 was 890 nM.

The same experiment, now with this note: 10 uM ATP, 170 nM TGFβ R1, room temperature 20 minutes, read-out: IC50 for Kinase Inhibition.
In the case of `CC(C)c1cnc(-c2cc(Cl)ccc2F)nc1Nc1ccncc1C(=O)NC[C@H](C)OC(=O)[C@H](C)N` [Compound 204, 2-Amino-propionic acid 2-({4-[2-(5-chloro-2-fluoro-phenyl)-5-isopropyl-pyrimidin-4-ylamino]-pyridine-3-carbonyl}-amino)-1-methyl-ethyl ester], the IC50 turned out to be 25 nM.

The values are drawn from patent US20060281763A1, “Carboxamide inhibitors of TGFbeta” (priority 2005, published 2006).
